According to patent US10654834B2 (Venenum Biodesign, LLC, priority 2016, dated 2020):

Assays:
[1] = system: Mouse STC-1 cells; assay: STC-1 GLP-1 assay (GLP-1 secretion); format: cell-based; settings: Mouse STC-1 cells, GLP-1 secretion, 2 h; read-out: Mouse STC-1 HTRF GLP-1 Activity (EC50)
Method in brief: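 Secreted active GLP-1 was measured by HTRF after overnight room-temperature incubation of supernatant with the conjugates. Supernatants came from a 2 h, 37° C. compound exposure (12-point half-log series) in HBSS with DPP-IV and protease inhibitors and 0.1% fatty acid free BSA. STC-1 cells had been seeded two days earlier in stripped-serum DMEM; EC50 reported.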

[2] = Pharmacokinetic profile in mice after oral gavage; format: in vivo, mouse; settings: mouse; fasted male Hilltop mice, 10 mg/kg oral gavage, plasma; read-out: Cmax
Method in brief: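 Plasma exposure (Cmax, AUC) by non-compartmental analysis of LC-MS/MS data, orbital blood taken at 0, 0.25, 0.5, 1, 2 and 4 h, each value averaging three mice. Dosing: 10 mg/kg oral gavage to overnight-fasted male Hilltop mice (8 weeks), vehicle PEG400/CMC/Tween-80.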

Question: Which EC50 [1] does the source give for `O=C(O)CNS(=O)(=O)CCNC(=O)CCCC1CCN(c2cc(N3CCC[C@H]3C(=O)NCCc3ccc(C(F)(F)F)cc3)nc(C(F)(F)F)n2)CC1` [Compound 114, (S)-2-(2-(4-(1-(2-(trifluoromethyl)-6-(2-((4-(trifluoromethyl)phenethyl)-carbamoyl)-pyrrolidin-1-yl)pyrimidin-4-yl)piperidin-4-yl)butanamido)ethyl-sulfonamido)acetic acid] here?
Answer: The EC50 was < 100 nM.

Question: And the Cmax [2]?
Answer: The Cmax was 4.8 ng/mL.

Question: Which EC50 [1] does the source give for `N#Cc1ccc(CCNC(=O)[C@@H]2CCCN2c2cc(N3CCC(CCNS(=O)(=O)CCNC(=N)N)CC3)nc(C(F)(F)F)n2)cc1` [Compound 130, (S)-N-(4-cyanophenethyl)-1-(6-(4-(2-(2-guanidinoethylsulfonamido)ethyl)piperidin-1-yl)-2-(trifluoromethyl)pyrimidin-4-yl)pyrrolidine-2-carboxamide] here?
Answer: Its EC50 is < 100 nM.

Question: And the Cmax [2]?
Answer: Its Cmax is 2.8 ng/mL.
